PubChem BioAssay (NCI)
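Briefly, cells in 96-well plates were exposed to five compound concentrations for 48 h, and endpoints were estimated by linear interpolation. The concentration for full growth arrest is given as TGI.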

Experiments:
Experiment in all cases: inhibition of tumour cell growth, NCI panel, 48 h
SK-MEL-2 melanoma = tested on: SK-MEL-2 melanoma
HT29 colon = tested on: HT29 colon
OVCAR-5 ovarian = tested on: OVCAR-5 ovarian
TK-10 renal = tested on: TK-10 renal
786-0 renal = tested on: 786-0 renal
UACC-62 melanoma = tested on: UACC-62 melanoma
HCT-15 colon = tested on: HCT-15 colon
MOLT-4 leukemia = tested on: MOLT-4 leukemia
SF-295 CNS = tested on: SF-295 CNS
HOP-92 NSCLC = tested on: HOP-92 NSCLC

Row | Compound | TGI (SK-MEL-2 melanoma) [µM] | TGI (HT29 colon) [µM] | TGI (OVCAR-5 ovarian) [µM] | TGI (TK-10 renal) [µM] | TGI (786-0 renal) [µM] | TGI (UACC-62 melanoma) [µM] | TGI (HCT-15 colon) [µM] | TGI (MOLT-4 leukemia) [µM] | TGI (SF-295 CNS) [µM] | TGI (HOP-92 NSCLC) [µM]
1 | COc1ccc(-n2c(CCC(=O)O)nc3c2C(=O)c2ccccc2C3=O)cc1 | > 100 | > 100 | > 100 | > 100 | > 100 | > 100 | > 100 | > 100 | > 100 | 
2 | CCOC1=C2N=C(C(CC)c3ccccc3F)N=C2C(=O)c2ccccc21 (centres undefined) | > 100 | > 100 |  | > 100 | > 100 | > 100 | > 100 | > 100 | > 100 | > 100
3 | CC1=C(c2nc3ccccc3s2)C(=O)OC1(C)C | > 100 | > 100 | > 100 |  | > 100 | > 100 | > 100 | > 100 | > 100 | 
4 | COc1ccc(N2C(=O)c3c(c4[nH]c5ccccc5c4c4ccc(C(C)(C)C)cc34)C2=O)cc1 | 71.8 |  | > 100 | > 100 | > 100 | 48.3 | > 100 | 52 | 92.9 | 64.2
5 | CCOC(=O)N/N=C(/N)c1cccc(Br)c1 | > 100 | > 100 | > 100 | > 100 | > 100 | > 100 | > 100 | > 100 | > 100 | 
6 | Cc1ccc(S(=O)c2cccs2)cc1 (centres undefined) |  | > 100 | > 100 | > 100 | > 100 |  | > 100 | > 100 | > 100 | > 100
7 | CO/C(N)=C(\C#N)N=Cc1ccc2ccccc2c1 | > 100 | > 100 |  | > 100 | > 100 | > 100 |  | > 100 | > 100 | > 100
8 | O=C1NC2NC3NC(=O)NC3NC2N1 (centres undefined) | > 100 | > 100 | > 100 |  | > 100 | > 100 |  | > 100 | > 100 | > 100
9 | C=CCCC1(O)C(O)C(CO)O[C@H](O[C@@]2(CO)OC(CO)C(O)C2O)C1O (some centres undefined) |  | > 100 | > 100 | > 100 | > 100 |  | > 100 | > 100 | > 100 | > 100
10 | CC(C)(C)OC(=O)NC1CCCC1C(=O)C1=CCCC1 (centres undefined) | > 100 | > 100 | > 100 |  | > 100 | > 100 | > 100 | > 100 |  | > 100
11 | CCS(=O)C(=O)N(O)c1ccc(Cl)cc1 (centres undefined) | 56.7 |  | > 100 | > 100 | 64.3 | 22.9 | 68.5 | 25 | > 100 | > 100
12 | CCC(NC(C)c1ccccc1)C(=O)c1ccc(OCc2ccccc2)c(OCc2ccccc2)c1 (centres undefined) |  | > 100 | > 100 | > 100 | > 100 | > 100 | > 100 |  | > 100 | > 100
13 | CN(C)CCN(C)P12(Oc3ccccc3O1)Oc1c(Cl)c(Cl)c(Cl)c(Cl)c1O2 |  | > 100 | > 100 | > 100 | > 100 | > 100 | > 100 | > 100 | > 100 | 92.7
14 | COC(=O)c1ccc2c(c1)CC1(C2)Cc2cc3c(cc2C1)CCC3 | > 100 | > 100 | > 100 | > 100 | > 100 |  | > 100 | > 100 | > 100 | > 100
15 | O[C@]12C=C(c3nccc4c3[nH]c3ccccc34)[C@@H]3CCN(CCCC/C=C\CC1)C[C@@]31CC3/C=C\CCCCN3[C@H]12 (some centres undefined) | 0.534 | 1.36 | 1.83 | 1.95 | 0.615 | 0.159 | 1.02 |  | 2.67 | 0.741
16 | CC1=NN(c2nc(N)nc(NS(=O)(=O)c3cc(C)c(Cl)cc3S)n2)C(C)(C)C1 | > 10 | > 10 | > 10 | > 10 | > 10 |  | > 10 | > 10 | > 10 | > 10
17 | Nc1nc(NNc2cccc(F)c2)cc(=O)[nH]1 |  | 54.6 | > 100 | > 100 | 37.5 |  | > 100 | > 100 | > 100 | 
18 | CC1(C)OP(=O)(c2ccccc2)C=C1Sc1ccc([N+](=O)[O-])cc1[N+](=O)[O-] (centres undefined) | > 100 | > 100 | > 100 | > 100 | > 100 | > 100 | > 100 |  | > 100 | > 100

Row | Compound | TGI (SK-MEL-2 melanoma) [µM] | TGI (HT29 colon) [µM] | TGI (OVCAR-5 ovarian) [µM] | TGI (TK-10 renal) [µM] | TGI (786-0 renal) [µM] | TGI (UACC-62 melanoma) [µM] | TGI (HCT-15 colon) [µM] | TGI (MOLT-4 leukemia) [µM] | TGI (SF-295 CNS) [µM] | TGI (HOP-92 NSCLC) [µM]
19 | Cc1cc2ncn(-c3nc4ccccc4nc3C(C#N)S(C)(=O)=O)c2cc1C (centres undefined) | > 100 |  | > 100 | > 100 | > 100 | > 100 | > 100 | > 100 |  | 
20 | CSc1ncnc2c1cnn2Cc1cnnn1COCC(O)CO (centres undefined) | > 100 | > 100 | > 100 | > 100 | > 100 | > 100 | > 100 | > 100 | > 100 | 
21 | COCC(C)(C)N=CN1Cc2cc3ccccc3nc2C1 | > 100 | > 100 |  | > 100 | > 100 | > 100 | > 100 | > 100 | > 100 | > 100
22 | O=[N+]([O-])c1ccc(SN=S=NSc2cccc(SN=S=NSc3ccc([N+](=O)[O-])cc3)c2)cc1 | 34.1 | > 100 | 74.3 |  | 27.2 | > 100 | 57.8 | > 100 | > 100 | > 100
23 | O=c1[nH]nc(Cc2ccccc2)n1/N=C/c1cccs1 | > 100 | > 100 | > 100 |  | > 100 | > 100 | > 100 | > 100 | > 100 | 
24 | CC(=O)Nc1[nH]n(C)c(=O)c1-c1nnc(C)s1 | > 100 | > 100 | > 100 | > 100 | > 100 |  | > 100 | > 100 |  | > 100
25 | CC1(C)OC(=O)C(C)(C)C(=O)O1 | > 100 | > 100 | > 100 | > 100 | > 100 | > 100 | > 100 | > 100 | > 100 | 
26 | Cn1c(=O)c2[nH]c(N=O)nc2n(C)c1=O | > 100 | > 100 | > 100 | > 100 | > 100 | > 100 | > 100 | > 100 | > 100 | 
27 | CCOC1OC(CO)C(O)CC1n1ccc(=O)[nH]c1=O (centres undefined) | > 100 | > 100 | > 100 | > 100 | > 100 | > 100 | > 100 |  | > 100 | > 100
28 | CNC(=O)c1n[nH]n(C2CCCCC2)c1=S | > 100 | > 100 | > 100 |  | > 100 | > 100 | > 100 | > 100 | > 100 | > 100
29 | CCOc1ccccc1N=Nc1ccc2oc(=O)c(C(C)=O)cc2c1 | > 100 | > 100 | > 100 | > 100 | > 100 | > 100 | > 100 | > 100 | > 100 | 
30 | O=C(NCCN1CCCCC1)c1ccc(Br)cc1 | > 100 | > 100 | > 100 | > 100 | > 100 |  | > 100 | > 100 | > 100 | > 100
31 | CC(C)[C@@H]1CC[C@@H](C)C[C@H]1OC(=O)c1c2n(c3ccccc13)C[C@H]1OC(C)(C)O[C@@H]21 | > 100 | > 100 | > 100 | 60.7 | > 100 | > 100 | > 100 | > 100 | > 100 | 
32 | O=Cc1c[nH]c2c(=O)[nH]cnc12 | > 100 | > 100 |  | > 100 | > 100 | > 100 | > 100 | > 100 | > 100 | > 100
33 | CC1=CC2C(C=C1)S(=O)(=O)N1CC21c1ccccc1 (centres undefined) | > 100 | > 100 | > 100 | > 100 | > 100 | > 100 | > 100 |  | > 100 | > 100
34 | Clc1ccc(Cl)c(N=Nc2cc3c4c(c2)CCN4CCC3)c1 | > 10 | > 10 |  | > 10 | > 10 | > 10 | > 10 | > 10 | > 10 | > 10
35 | FC(F)(F)c1ccccc1C1SCC2=Nc3ccccc3CN21 (centres undefined) |  | 30 | 26.6 | 29.9 | 24.2 | 26.1 | 27.1 | > 100 | 26.2 | 60.9
36 | CCCCOCCOCCOC1=CC(=O)c2c(O)ccc(O)c2C1=O | 3.52 |  |  | 5.28 | 2.95 | 3.64 |  | 8.22 | 3.06 | 6.28
